Measured values taken from article PMC7224213, “A novel peroxidase from Ziziphus jujuba fruit: purification, thermodynamics and biochemical characterization properties” (Scientific Reports, 2020).

System: T1, Z. jujuba peroxidase (POD IIA)
T1 construct: 56 kDa by gel filtration and SDS-PAGE (single band); EC 1.11.1.7
Test: absorbance at […] nm, Lineweaver-Burk
Assay type: biochemical, Ziziphus jujuba
Settings: co-substrate H2O2; 0.05 M sodium acetate pH 5.5; 50 °C; guaiacol 20-90 mM; text prints 23.5 with the units of Km and Vmax interchanged (unit/ml)

Q: How did the Km turn out when COc1ccccc1O [guaiacol] was run?
A: Its Km is 23.5 mM.
